Assay: recombinant UMI read abundance after kanamycin selection (control-corrected) (log10(CPM+1)); higher = more efficient recombination; extreme values may be limits of the assay; sequences stand for … in AGTGCAGAGAAAATCGGCCAGTTTTCTCTGCCTGCAGTCCGCATGCCGTGGGACCCCTTGGGTTCTAACCTGTTGCCTAGATTTATGCAGCGGACTGCCTTTCTCCCAAAGTGATAAACCGG…AGGTTGGTTTCACT; site = the 11-nt donor
Outline: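 Sequencing read counts were converted to CPM, averaged over two replicates and scaled by control-derived factors. Results are given as log10(CPM+1). The reads covered the donor–target junction of recombinant UMIs from a pooled Escherichia coli screen of donor and donor-binding-loop pairs for the IS621 bridge recombinase.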
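Also: IS621 bridge recombinase in Escherichia coli cells against a fixed T5 target plasmid.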

Row | Sequence | recombinant UMI read abundance (log10)
1 | ACACGAACATGGACCGGTTTTCCCGGTAATCCGTATTTGTA (site ACACGAACTGA) | 1.52
2 | CACTCCTCATGGACCGGTTTTCCCGGTAATCCGTATTTGTC (site CACTCCTCTGC) | 1.7
3 | AGGAGTACATGGACCGGTTTTCCCGGTAATCCGTATTTGAC (site AGGAGTACTGT) | 2.08
4 | CCCTTATCATGGACCGGTTTTCCCGGTAATCCGTATTTGGG (site CCCTTCTCTCC) | 0.0199
5 | AGCAAGGCATGGACCGGTTTTCCCGGTAATCCGTATTTGCT (site AGCAAGGCTAG) | 2.61
6 | GGACAGACATGGACCGGTTTTCCCGGTAATCCGTATTTGCC (site GGAAAGACTGG) | 0
7 | CGGAAGACATGGACCGGTTTTCCCGGTAATCCGTATTTGTT (site CGGAATCCTAA) | 0.00737
8 | CGGACCTCATGGACCGGTTTTCCCGGTAATCCGTATTTGCT (site CGGACCTCTAG) | 3.12
9 | AATGCACCATGGACCGGTTTTCCCGGTAATCCGTATTTGTG (site AATGCACCTCA) | 0.0217
10 | AGCGCGACATGGACCGGTTTTCCCGGTAATCCGTATTTGTG (site AGCGCGACTCA) | 0.829
11 | ATGTAGGCATGGACCGGTTTTCCCGGTAATCCGTATTTGGC (site ATGTAGGCTAC) | 1.17
12 | CCCAAGCCATGGACCGGTTTTCCCGGTAATCCGTATTTGCC (site CCCCAGCCTGG) | 0
13 | AGCTCAGCATGGACCGGTTTTCCCGGTAATCCGTATTTGAG (site AGCTCAGCTCT) | 1.33
14 | GCGAAAACATGGACCGGTTTTCCCGGTAATCCGTATTTGGT (site GCGAAAACTAG) | 0
15 | CTGCTACCATGGACCGGTTTTCCCGGTAATCCGTATTTGCT (site CCGCTACCTAG) | 0
16 | GTTAGAACATGGACCGGTTTTCCCGGTAATCCGTATTTGGA (site GTTAGAACTAC) | 0.00435

Row | Sequence | recombinant UMI read abundance (log10)
17 | AATGGAACATGGACCGGTTTTCCCGGTAATCCGTATTTGCT (site AATGTAACTAG) | 1.78
18 | TAAGCTGCATGGACCGGTTTTCCCGGTAATCCGTATTTGTG (site TAAGCTGCTCA) | 0.65
19 | GAGTACCCATGGACCGGTTTTCCCGGTAATCCGTATTTGTT (site GAGTACCCTAA) | 0.0215
20 | CAGCTACCATGGACCGGTTTTCCCGGTAATCCGTATTTGCT (site CTGCTACCTAG) | 0
21 | CGGAAATCATGGACCGGTTTTCCCGGTAATCCGTATTTGCT (site CGGAAATCTAG) | 2.06
22 | AAGCACGCATGGACCGGTTTTCCCGGTAATCCGTATTTGGG (site AAGCACACTCC) | 0.0106
23 | CGAGGACCATGGACCGGTTTTCCCGGTAATCCGTATTTGGC (site CGAGGACCTAC) | 0.0204
24 | AAATAGGCATGGACCGGTTTTCCCGGTAATCCGTATTTGCC (site AAATAGGCTGG) | 1.07
25 | AACTTGACATGGACCGGTTTTCCCGGTAATCCGTATTTGCT (site AACTTGACTAG) | 0.971
26 | CCTGGTGCATGGACCGGTTTTCCCGGTAATCCGTATTTGAT (site CCTGGTGCTAT) | 0.494
27 | GGAATGGCATGGACCGGTTTTCCCGGTAATCCGTATTTGGT (site GGATTGGCTAC) | 0.00922
28 | GGTTCAACATGGACCGGTTTTCCCGGTAATCCGTATTTGTA (site GGTACAACTTA) | 0.00935
29 | TGATCATCATGGACCGGTTTTCCCGGTAATCCGTATTTGGT (site TGATCATCTAC) | 1.42
30 | GGGACGTCATGGACCGGTTTTCCCGGTAATCCGTATTTGCA (site GGGACGTCTTG) | 1.99
31 | GTAAACGCATGGACCGGTTTTCCCGGTAATCCGTATTTGTT (site GTAAACGCTAA) | 2.59
32 | ATGAATACATGGACCGGTTTTCCCGGTAATCCGTATTTGGC (site ATGAATACTGC) | 1.69

— the supplement of paper PMC11208160
